Literature values in EP2367539B1, “NOVEL COMPOSITION FOR TREATMENT OF ESSENTIAL THROMBOCYTHEMIA” (AOP Orphan Pharmaceuticals AG, priority 2008, dated 2010).

Assays:
[1] = tested on: PDE 3; conditions: compared with anagrelide
[2] = tested on: PDE 3

SMILES	potency as an inhibitor of PDE 3 [1]	platelet reduction and PDE 3 inhibitory activity [2]
O=C1NC2=Nc3ccc(Cl)c(Cl)c3CN2C1O (centres unmarked) [3-hydroxyanagrelide]	considerably more potent than anagrelide	
NC1=Nc2ccc(Cl)c(Cl)c2CN1 [RL 603, 2-amino-5,6-dichloro-3,4-dihydroquinazolone]		lacks these activities
